“And” between values parts separate entries of the source, which are not always exact repeats. Identical values can stand only once.
Conditions: Liquid, Vibrating wire viscometry

CCCCOC(=O)CCCCC(=O)OCCCC [dibutyl hexanedioate]
Conditions | viscosity
333.15 K, 5090 kPa | 2.366 mPa·s
333.15 K, 5100 kPa | 2.361 mPa·s and 2.362 mPa·s
333.15 K, 5210 kPa | 2.361 mPa·s and 2.365 mPa·s
333.15 K, 5220 kPa | 2.366 mPa·s
333.15 K, 7790 kPa | 2.42 mPa·s and 2.421 mPa·s
333.15 K, 7800 kPa | 2.421 mPa·s
333.15 K, 10100 kPa | 2.493 mPa·s
333.15 K, 10120 kPa | 2.495 mPa·s
333.15 K, 10130 kPa | 2.495 mPa·s
333.15 K, 10160 kPa | 2.493 mPa·s
333.15 K, 14860 kPa | 2.621 mPa·s
333.15 K, 15150 kPa | 2.62 mPa·s
333.15 K, 15240 kPa | 2.619 mPa·s
333.15 K, 15260 kPa | 2.625 mPa·s
333.15 K, 20250 kPa | 2.763 mPa·s
333.15 K, 20260 kPa | 2.76 mPa·s
333.15 K, 20270 kPa | 2.761 mPa·s
333.15 K, 20290 kPa | 2.76 mPa·s
333.15 K, 29840 kPa | 3.05 mPa·s
333.15 K, 29880 kPa | 3.043 mPa·s
333.15 K, 30130 kPa | 3.05 mPa·s
333.15 K, 30150 kPa | 3.042 mPa·s
333.15 K, 30230 kPa | 3.047 mPa·s
333.15 K, 39970 kPa | 3.331 mPa·s
333.15 K, 40020 kPa | 3.332 mPa·s
333.15 K, 40070 kPa | 3.33 mPa·s
333.15 K, 40080 kPa | 3.335 mPa·s
333.15 K, 49990 kPa | 3.644 mPa·s
333.15 K, 50000 kPa | 3.638 mPa·s and 3.636 mPa·s and 3.632 mPa·s
333.15 K, 61450 kPa | 4.065 mPa·s
333.15 K, 61480 kPa | 4.064 mPa·s
333.15 K, 61600 kPa | 4.055 mPa·s
333.15 K, 61660 kPa | 4.057 mPa·s
333.16 K, 2490 kPa | 2.298 mPa·s
333.16 K, 2580 kPa | 2.299 mPa·s
333.16 K, 5220 kPa | 2.361 mPa·s
333.16 K, 7780 kPa | 2.422 mPa·s
343.14 K, 20120 kPa | 2.335 mPa·s and 2.332 mPa·s
343.14 K, 39830 kPa | 2.803 mPa·s
343.14 K, 39840 kPa | 2.809 mPa·s
343.14 K, 39860 kPa | 2.807 mPa·s
343.14 K, 39870 kPa | 2.804 mPa·s
343.14 K, 39880 kPa | 2.81 mPa·s
343.14 K, 65480 kPa | 3.489 mPa·s
343.14 K, 65500 kPa | 3.484 mPa·s
343.15 K, 1100 kPa | 1.917 mPa·s and 1.916 mPa·s
343.15 K, 1170 kPa | 1.915 mPa·s
343.15 K, 1240 kPa | 1.914 mPa·s
343.15 K, 1260 kPa | 1.918 mPa·s and 1.915 mPa·s
343.15 K, 2480 kPa | 1.949 mPa·s
343.15 K, 2500 kPa | 1.945 mPa·s and 1.947 mPa·s
343.15 K, 2520 kPa | 1.948 mPa·s
343.15 K, 2530 kPa | 1.95 mPa·s
343.15 K, 2580 kPa | 1.946 mPa·s
343.15 K, 4960 kPa | 1.993 mPa·s
343.15 K, 4970 kPa | 1.994 mPa·s
343.15 K, 4980 kPa | 1.992 mPa·s
343.15 K, 4990 kPa | 1.989 mPa·s
343.15 K, 7500 kPa | 2.054 mPa·s
343.15 K, 7510 kPa | 2.057 mPa·s and 2.059 mPa·s
343.15 K, 7520 kPa | 2.056 mPa·s
343.15 K, 10030 kPa | 2.118 mPa·s
343.15 K, 10040 kPa | 2.117 mPa·s and 2.119 mPa·s
343.15 K, 10090 kPa | 2.117 mPa·s
343.15 K, 15220 kPa | 2.224 mPa·s
343.15 K, 15240 kPa | 2.222 mPa·s
343.15 K, 15260 kPa | 2.221 mPa·s
343.15 K, 20040 kPa | 2.334 mPa·s
343.15 K, 20160 kPa | 2.337 mPa·s
343.15 K, 20210 kPa | 2.335 mPa·s
343.15 K, 20240 kPa | 2.332 mPa·s
343.15 K, 20270 kPa | 2.331 mPa·s
343.15 K, 20280 kPa | 2.335 mPa·s
343.15 K, 30090 kPa | 2.562 mPa·s
343.15 K, 30130 kPa | 2.561 mPa·s
343.15 K, 30140 kPa | 2.566 mPa·s
343.15 K, 30150 kPa | 2.561 mPa·s and 2.564 mPa·s
343.15 K, 30160 kPa | 2.566 mPa·s
343.15 K, 39830 kPa | 2.806 mPa·s
343.15 K, 50080 kPa | 3.08 mPa·s and 3.083 mPa·s
343.15 K, 65610 kPa | 3.482 mPa·s
343.15 K, 65620 kPa | 3.49 mPa·s
358.15 K, 2510 kPa | 1.559 mPa·s
358.15 K, 2520 kPa | 1.559 mPa·s and 1.56 mPa·s
358.15 K, 5050 kPa | 1.594 mPa·s and 1.593 mPa·s
358.15 K, 5060 kPa | 1.594 mPa·s and 1.595 mPa·s
358.15 K, 5240 kPa | 1.601 mPa·s
358.15 K, 9930 kPa | 1.688 mPa·s
358.15 K, 10010 kPa | 1.69 mPa·s
358.15 K, 15060 kPa | 1.769 mPa·s and 1.766 mPa·s and 1.764 mPa·s
358.15 K, 15100 kPa | 1.768 mPa·s
358.15 K, 15130 kPa | 1.765 mPa·s
358.15 K, 20130 kPa | 1.863 mPa·s
358.15 K, 30280 kPa | 2.045 mPa·s
358.15 K, 30290 kPa | 2.042 mPa·s and 2.044 mPa·s
358.15 K, 30300 kPa | 2.041 mPa·s
358.15 K, 30310 kPa | 2.043 mPa·s
358.15 K, 30320 kPa | 2.046 mPa·s
358.15 K, 39960 kPa | 2.223 mPa·s
358.15 K, 39990 kPa | 2.219 mPa·s
358.15 K, 40010 kPa | 2.219 mPa·s
358.15 K, 40040 kPa | 2.222 mPa·s
358.15 K, 40060 kPa | 2.219 mPa·s
358.16 K, 1080 kPa | 1.521 mPa·s
358.16 K, 1090 kPa | 1.524 mPa·s and 1.523 mPa·s and 1.521 mPa·s
358.16 K, 2510 kPa | 1.559 mPa·s
358.16 K, 2540 kPa | 1.558 mPa·s
358.16 K, 5180 kPa | 1.6 mPa·s
358.16 K, 5200 kPa | 1.597 mPa·s
358.16 K, 5240 kPa | 1.599 mPa·s
358.16 K, 7560 kPa | 1.645 mPa·s and 1.644 mPa·s and 1.643 mPa·s
358.16 K, 20120 kPa | 1.868 mPa·s and 1.866 mPa·s
358.16 K, 20130 kPa | 1.868 mPa·s
358.16 K, 20160 kPa | 1.863 mPa·s
358.16 K, 40080 kPa | 2.223 mPa·s
358.16 K, 50160 kPa | 2.426 mPa·s and 2.429 mPa·s
358.16 K, 50170 kPa | 2.424 mPa·s and 2.427 mPa·s
358.16 K, 65550 kPa | 2.761 mPa·s and 2.757 mPa·s and 2.758 mPa·s
373.14 K, 2490 kPa | 1.265 mPa·s
373.14 K, 10000 kPa | 1.376 mPa·s and 1.374 mPa·s
373.14 K, 15040 kPa | 1.442 mPa·s
373.14 K, 15050 kPa | 1.443 mPa·s
373.14 K, 29940 kPa | 1.668 mPa·s
373.15 K, 1060 kPa | 1.253 mPa·s
373.15 K, 1120 kPa | 1.255 mPa·s
373.15 K, 1160 kPa | 1.254 mPa·s
373.15 K, 2590 kPa | 1.264 mPa·s
373.15 K, 2600 kPa | 1.264 mPa·s
373.15 K, 5080 kPa | 1.302 mPa·s and 1.301 mPa·s and 1.303 mPa·s
373.15 K, 7600 kPa | 1.342 mPa·s and 1.341 mPa·s
373.15 K, 7610 kPa | 1.341 mPa·s
373.15 K, 10090 kPa | 1.375 mPa·s
373.15 K, 10130 kPa | 1.374 mPa·s
373.15 K, 15060 kPa | 1.441 mPa·s
373.15 K, 15070 kPa | 1.443 mPa·s
373.15 K, 20220 kPa | 1.518 mPa·s
373.15 K, 20230 kPa | 1.518 mPa·s
373.15 K, 20250 kPa | 1.516 mPa·s
373.15 K, 29920 kPa | 1.669 mPa·s
373.15 K, 29980 kPa | 1.667 mPa·s
373.15 K, 30000 kPa | 1.667 mPa·s
373.15 K, 50030 kPa | 1.976 mPa·s [middle of 4 runs]
373.15 K, 65350 kPa | 2.231 mPa·s and 2.229 mPa·s

From the NIST ThermoML archive (doi:10.1016/j.fluid.2015.03.016)
